Converted amounts (≈) assume the structure as drawn. Read-outs that look alike come from different tables or passages of the source.
Legend:
[1] = Solubility testing (aqueous, LCUV); type: physicochemical; settings: aqueous buffer, kinetic from dmso stock, pH 6.8, final concentration 125 µg/mL
Description: Dilution into a 1:1 mixture of acetonitrile and water was used as a reference. After 24 h, the incubations were filtrated, and the filtrate was analyzed by LCUV.

[2] = Bidirectional permeability in Caco2 cells; type: in vitro ADME; settings: human, Caco-2, 1 or 10 µM, pH 7.4; for Papp A→B: apical to basolateral
Description: Bidirectional permeability of test compounds across a Caco2 cell monolayer was measured as described previously. […] Cells were incubated with the compounds for up to 2 h, and samples from the opposite (receiver) compartment were taken at different time points.

[3] = system: VHL; settings: read-out: TR-FRET IC50 (value marked *: FP assay), ref as reported previously; cited from earlier work
[4] = biological target: VCB (VHL-ElonginC-ElonginB) complex (Homo sapiens, UniProt P40337); experiment: TR-FRET VCB—VHL tracer binding assay
Chain of VCB (VHL-ElonginC-ElonginB) complex (P40337 54-213): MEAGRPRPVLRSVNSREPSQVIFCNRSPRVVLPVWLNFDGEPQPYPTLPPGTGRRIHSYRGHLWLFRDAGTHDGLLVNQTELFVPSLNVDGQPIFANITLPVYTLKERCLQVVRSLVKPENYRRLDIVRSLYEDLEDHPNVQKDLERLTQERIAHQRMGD
Chain of VCB (VHL-ElonginC-ElonginB) complex (Q15370 1-104 partner limits assumed): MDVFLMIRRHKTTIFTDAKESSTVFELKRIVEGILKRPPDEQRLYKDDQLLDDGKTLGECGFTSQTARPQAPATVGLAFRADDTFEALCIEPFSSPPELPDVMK
Chain of VCB (VHL-ElonginC-ElonginB) complex (Q15369 17-112 partner limits assumed): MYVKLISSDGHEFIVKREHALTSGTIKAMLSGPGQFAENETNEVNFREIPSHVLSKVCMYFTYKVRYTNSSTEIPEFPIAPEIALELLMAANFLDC

[5] = biological target: 13C-methyl labeled VCB complex (Homo sapiens, UniProt P40337); experiment: Protein-observed NMR titration / hit validation; settings: for induced CSPs, Val and Leu region (binding region): 200 µM 13C labeled VCB, 500 µM VH298 or reference molecule 2, 1000 µM of 1
Chain of 13C-methyl labeled VCB complex (P40337 54-213): as the sequence (P40337 54-213) above
Chain of 13C-methyl labeled VCB complex (Q15370 1-104 partner limits assumed): as the sequence (Q15370 1-104 partner limits assumed) above
Chain of 13C-methyl labeled VCB complex (Q15369 17-112 partner limits assumed): as the sequence (Q15369 17-112 partner limits assumed) above

[6] = NMR detected solubility in NMR buffer; type: physicochemical; settings: 500 µM target, 20 mM TRIS, 100 mM NaCl, pH 7.5 in D2O, 1H NMR vs maleic acid
[7] = read-out: TR-FRET IC50, Cy5-labeled VHL tracer, 10 nM His-tagged VCB, mean ± s.d., 1 as diastereomeric mixture

| Structure (SMILES) | IC50 [4, 7] [µM] | solubility [6] [µM] | also measured |
| --- | --- | --- | --- |
| Cc1ncsc1-c1ccc(CNC(=O)[C@@H]2C[C@@H](O)CN2C(=O)[C@@H](NC(=O)C2(F)CC2)C(C)(C)C)cc1 [Reference molecule 1] |  |  | solubility at 24 h [1]: > 0.115 mg/mL; Papp A→B [2]: 29 nm/s; IC50 [3]: […] |
| Cc1cc(CC(=O)N2C[C@H](O)C[C@H]2C(=O)NCc2ccc(Cl)cc2)on1 [Reference molecule 2] | 132 ± 38 |  | solubility at 24 h [1]: > 0.088 mg/mL; efflux ratio [2]: 4.8; induced CSPs, Val and Leu region (binding region) [5]: interact with the same binding region; Kd ([5]; read-out: NMR KD, fit of dose-dependent chemical shifts of peaks #1 and #2, two independent titrations): 29 ± 1 µM |
| Cc1ncsc1-c1ccc(CNC(=O)[C@@H]2C[C@@H](O)CN2C(=O)[C@@H](NC(=O)C2(C#N)CC2)C(C)(C)C)cc1 [VH298, (2S,4R)-1-((S)-2-(1-Cyanocyclopropanecarboxamido)−3,3-dimethylbutanoyl)-4-hydroxy-N-(4-(4-methylthiazol-5-yl)benzyl)pyrrolidine-2-carboxamide] |  |  | induced CSPs, Val and Leu region (binding region) [5]: interact with the same binding region |
| Cc1ncsc1-c1ccc(CNC(=O)C2CC(O)CN(c3ccccn3)C2=O)cc1 (centres unmarked) [compound 1] |  |  | solubility at 24 h [1]: > 0.098 mg/mL; Papp A→B [2]: 230 nm/s; IC50 [4]: 264 ± 30 µM; solubility ([6]; NMR buffer, aqueous buffer): > 500 µM; Kd [5]: 182 ± 76 µM; induced CSPs, Val and Leu region (binding region) [5]: interact with the same binding region |
| Cc1ncsc1-c1ccc(CNC(=O)c2cc(=O)cc(Cl)[nH]2)cc1 [compound 2] | > 100 | 20.0 (≈ 7.2 µg/mL) |  |
| Cc1ncsc1-c1ccc(CNC(=O)c2cc(=O)cc(-c3ccccc3)[nH]2)cc1 [compound 3] | 13.8 ± 1.8 | 280.0 (≈ 112 µg/mL) |  |
| Cc1ncsc1-c1ccc(CNC(=O)c2c[nH]cc(Br)c2=O)cc1 [compound 4] | > 100 |  | solubility ([6]; NMR buffer, aqueous buffer): 40 µM (≈ 16.2 µg/mL) |
| Cc1ncsc1-c1ccc(CNC(=O)c2c[nH]cc(-c3ccccc3)c2=O)cc1 [compound 5] | > 100 | 20.0 (≈ 8.03 µg/mL) |  |
| Cc1ncsc1-c1ccc(CNCc2cc(CO)nc(N(C)c3ccccc3)c2)cc1 [compound 6] | > 500 | 70.0 (≈ 30.1 µg/mL) |  |
| Cc1ncsc1-c1ccc(CN(Cc2cc(Cl)nc(CO)c2)C(=O)OC(C)(C)C)cc1 [compound 7] | 106 ± 5.2 | 60.0 (≈ 27.6 µg/mL) |  |
| CN(CCNCc1ccccc1)c1cnn[nH]1 [compound 8] | > 500 | 430.0 (≈ 99.5 µg/mL) |  |
| Cc1ncsc1-c1ccc(CNc2cc(CO)cc3c2cnn3C)cc1 [compound 9] |  |  | IC50 [4]: > 100 µM; solubility ([6]; NMR buffer, aqueous buffer): 110 µM (≈ 40.1 µg/mL) |
| Cc1ncsc1-c1ccc(CNc2cc(CO)cc3nn(C)cc23)cc1 [compound 10] |  |  | IC50 [4]: 167 ± 47 µM; solubility ([6]; NMR buffer, aqueous buffer): 240 µM (≈ 87.5 µg/mL) |
| Cc1ncsc1-c1ccc(C(=O)Nc2cc(CO)cc3c2cnn3C)cc1 [compound 11] | > 500 | 180.0 (≈ 68.1 µg/mL) |  |
| Cc1ncsc1-c1ccc(C(=O)Nc2cc(CO)cc3nn(C)cc23)cc1 [compound 12] | 255 ± 45 | 70.0 (≈ 26.5 µg/mL) |  |
| Cc1ncsc1-c1ccc(CNC(=O)c2cc(O)cc(Br)c2)cc1 [compound 13] | > 100 | 20.0 (≈ 8.07 µg/mL) |  |
| Cc1ncsc1-c1ccc(CNC(=O)c2cc(O)cc(-c3ccccc3)c2)cc1 [compound 14] | 15.6 ± 1.2 | < 10.0 |  |
| Cc1ncsc1-c1ccc(-c2ccc3cccc(C(N)=O)c3c2)cc1 [compound 15] |  |  | solubility ([6]; NMR buffer, aqueous buffer): < 10 µM |
| Cc1ncsc1-c1ccc(-c2ccc3nccc(C(N)=O)c3c2)cc1 [compound 16] | 8.8 ± 0.8 | < 10.0 |  |
| Cc1ncsc1-c1ccc(CNC(=O)[C@@H]2C[C@@H](O)Cc3ccccc32)cc1 [compound 17] | 313 ± 135 | 400.0 (≈ 151 µg/mL) |  |
| Cc1ncsc1-c1ccc(CNC(=O)[C@H]2C[C@H](O)Cc3ccccc32)cc1 [compound 18] | 166 ± 77 | > 500.0 |  |
| Cc1ncsc1-c1ccc(CNC(=O)C2CC(O)CN(c3ccccn3)C2)cc1 (centres unmarked) [compound 19] | > 100 | 230.0 (≈ 94 µg/mL) |  |
| O=C(Cc1ccc2cc(O)ccc2c1)Nc1cc[nH]n1 [compound 22] |  |  | IC50 [4]: 315 ± 44 µM; solubility ([6]; NMR buffer, aqueous buffer): 350 µM (≈ 93.6 µg/mL) |
| Cc1ncsc1-c1ccc(CNC(=O)[C@@H]2C[C@@H](O)C[C@H](c3ccccc3)C2)cc1 [compound 24] |  |  | IC50 [4]: > 100 µM; solubility ([6]; NMR buffer, aqueous buffer): < 10 µM |
| Cc1ncsc1-c1ccc(CNC(=O)[C@H]2C[C@H](O)C[C@@H](c3ccccc3)C2)cc1 [compound 25] |  |  | IC50 [4]: > 100 µM; solubility ([6]; NMR buffer, aqueous buffer): < 10 µM |
| O=S1(=O)Cc2ccccc2-c2[nH]ncc21 [compound 26] |  |  | IC50 [4]: 265 ± 74 µM; solubility ([6]; NMR buffer, aqueous buffer): > 500 µM |
| Cc1ncsc1-c1ccc(CNc2cc(C(C)C)c[nH]c2=O)cc1 [compound 33] |  |  | IC50 [4]: 71.7 ± 49.3 µM; solubility ([6]; NMR buffer, aqueous buffer): 50 µM (≈ 17 µg/mL) |
| Cc1ncsc1-c1ccc(CNCc2cc(O)cc(N(C)c3ccccc3)c2)cc1 [compound 40] |  |  | IC50 [4]: 67.8 ± 5.1 µM; solubility ([6]; NMR buffer, aqueous buffer): < 10 µM |

Further lines, with some results ahead:

| IC50 [4, 7] [µM] | solubility [6] [µM] | Structure (SMILES) | also measured |
| --- | --- | --- | --- |
| > 100 | 110.0 (≈ 44.7 µg/mL) | Cc1ncsc1-c1ccc(CNC(=O)C2CC(O)CC(c3ccccc3)C2)cc1 (centres unmarked) [compound 23] |  |
| > 500 | > 500.0 | O=S1(=O)Cc2ccccc2-c2[nH]nc(Br)c21 [compound 27] |  |
| 244 ± 22 | 360.0 (≈ 117 µg/mL) | O=S1(=O)Cc2ccccc2-c2[nH]nc(NCc3ccccc3)c21 [compound 28] |  |
| 175 ± 18 |  | O=[N+]([O-])c1ccc2c(c1)CS(=O)(=O)c1cn[nH]c1-2 [compound 29] |  |
| > 100 | 20.0 (≈ 8.09 µg/mL) | Cc1ncsc1-c1ccc(CNC(=O)c2cc(Br)c[nH]c2=O)cc1 [compound 34] |  |
|  | < 10.0 | Cc1ncsc1-c1ccc(CNC(=O)c2cc(-c3ccccc3)c[nH]c2=O)cc1 [compound 35] |  |
| 13 ± 4.5 | < 10.0 | Cc1ncsc1-c1ccc(CC(=O)Nc2c[nH]c3ccccc23)cc1 [compound 36] |  |
| > 100 | < 10.0 | Cc1ncsc1-c1ccc(CNC(=O)Cc2ccc(-c3ccccc3)cc2CO)cc1 [compound 37] |  |
| 85.7 ± 16.2 | 80.0 (≈ 31.1 µg/mL) | Cc1ncsc1-c1ccc(CNCc2cc(O)cc(Br)c2)cc1 [compound 38] |  |
| 70.7 ± 0.4 | < 10.0 | Cc1ncsc1-c1ccc(CN(Cc2cc(O)cc(Br)c2)C(=O)OC(C)(C)C)cc1 [compound 39] |  |
| > 100 | < 10.0 | Cc1ncsc1-c1ccc(CNC(=O)c2cc(Br)cc(=O)[nH]2)cc1 [compound 41] |  |
| 144 ± 10 | > 500.0 | Cc1ncsc1-c1ccc(CNC(=O)c2cc(C#N)cc(O)n2)cc1 [compound 42] |  |
| > 500 | > 500.0 | NC(=O)c1cn[nH]c1-c1cccc2ccccc12 [compound 43] |  |
